The values that follow come from US12084421B2, “Quinoline-based proteasome inhibitors and uses thereof” (Board of Trustees of Michigan State University, priority 2017, dated 2024).

Data set [1] deals with purified human 20S proteasome (CT-L activity) (Homo sapiens, UniProt P28074). The data set is described as follows: Proteasomal CT-L activity measurement with Suc-LLVY-AMC. It counts as biochemical. Particulars: for pIC50: Suc-LLVY-AMC substrate, 37° C., 30 min. On the procedure:
(§1) Proteasomal activity measurement: The fluorogenic substrates Suc-LLVY-AMC, Z-ARR-AMC, and Z-LLE-AMC were used to measure CT-L, T-L and casp-L proteasome activities, respectively. Assays were carried out in black, clear bottom 96 well plates in a 200 μL reaction volume containing 1 nM of purified human 20S proteasome in 50 mM Tris-HCL pH 7.5 and 0.03% SDS containing 50 IM fluorogenic substrate at 37° C. The rate of cleavage of fluorogenic peptide substrates was determined by monitoring the fluorescence of released aminomethylcoumarin using a SpectraMax M5e multiwall plate reader at an excitation wavelength of 380 nm and emission wavelength of 460 nm. Fluo-rescence was measured every minute over a period of 30 minutes and the maximum increase in fluorescence per minute was used to calculate specific activities of each sample.
Compounds were screened in vitro using purified human 20S proteasome and the fluorogenic peptide substrate, Suc-LLVY-AMC, as the substrate for CT-L activity as described herein.
The mechanism by which quinoline 7 inhibits the proteasome was investigated using Michaelis-Menton analysis to determine of KM and Vmax and then further illustrated using a Lineweaver-Burk double reciprocal plot of the kinetic data. Kinetic analysis of CT-L activity of purified 20S particles indicate that when the substrate (Suc-LLVY-AMC) concentration was increased incrementally and measurements were taken at five different concentrations of compound 7 or vehicle, the Vmax of the CT-L activity decreases and the KM increases, with the increasing concentration of […].

Data set [2] can be described thus: Microsome (S9 fraction) stability assay. It counts as in vitro ADME. Particulars: mouse S9 fraction 0.25 mg/mL, 3 μM compound, NADPH, LC-MS/MS.
The target in data set [3] is purified human 20S proteasome (casp-L activity) (Homo sapiens, UniProt P28072). Briefly: Proteasomal casp-L activity measurement with Z-LLE-AMC. Particulars: Z-LLE-AMC substrate. Type of data set: biochemical. The protocol:
as §1
Quinoline 7 was subsequently evaluated for its inhibition of the proteasome's tryptic (b2)-like and caspase (b1)-like activity in vitro using purified human 20S proteasome and the following fluorogenic peptide as substrates: Boc-LRR-AMC (substrate for T-L activity) and Z-LLE-AMC (substrate for casp-L activity).

The next data set can be described thus: Kinetic solubility assay. Particulars: phosphate buffered saline with 1% DMSO, aqueous buffer, kinetic from dmso stock; estimated kinetic solubility, phosphate buffered saline pH 7.4, 1% DMSO, 2 hours at 37° C., absorbance 620 nm. It counts as physicochemical. On the procedure:
Seven three-fold dilutions from 300 μM were prepared in phosphate buffered saline (ph=7.4) and 1% DMSO. Each concentration for each compound was tested three times (n=3). The compounds were incubated for 2 hours at 37° C. and the absorbance at 620 nm was evaluated for each dilution.

In the next data set the test system is HeLa NF-κB-luc cells. Briefly: NF-κB-luc reporter assay, TNF-α stimulated. Type of data set: cell-based. As to conditions: Homo sapiens, 30 min pretreatment, TNF-α 25 ng/mL, 8 h, Steady-Glo luciferase, read-out: IC50, NF-κB mediated gene transcription. On the procedure: NF-κB-luc reporter assay: HeLa NF-κB-luc cells (5.0×10^5 cells/mL) were seeded into a 96-well white opaque plate using DMEM medium supplemented with 5% fetal bovine serum, 500 U/mL penicillin, 100 μg/mL streptomycin, 1 mM sodium pyruvate, 0.2 mM L-glutamine, and 100 Ig/mL hygromycin B. After 24 h the cell culture medium was replaced with DMEM medium supplemented with 100 U/mL penicillin and 100 Ig/mL streptomycin. Cell cultures were pretreated with vehicle (1% DMSO), 50 IMpeptide aldehyde MG-132 (positive control) or quinoline (final concentrations were 50, 25, 12.5, 6.25, 3.13 and 1.56 IM) for 30 min at 37° C. in 5% CO2. TNF-α was added to a final concentration of 25 ng/mL and the samples were further incubated for 8 h at 37° C. in 5% CO2. […] The luminescence of each well was measured using a Veritas microplate luminometer. […] The data was analyzed using GraphPad Prism 4.0. The data was normalized to TNF-α activation and the EC50 values were calculated using the equation for the sigmodial curve for variable slope.
In order to evaluate whether the inhibition of proteasome activity translated in cell culture, we evaluated compound 7 for inhibition of NE-KB regulation. […] In order to determine if quinoline 7 affects NE-KB mediated gene transcription, we evaluated quinoline 7 in HeLa NE-KB-luc cells. […]
Background: A reporter such as luciferase makes a cellular process visible.

pIC50: −log10 of the molar value. Converted amounts (≈) assume the structure as drawn.

Regarding `Cc1cc(C)c2cc(-c3ccccc3)cnc2c1` [Compound 4, 5,7-Dimethyl-3-phenylquinoline], in data set [1], the pIC50 (usually the negative decadic logarithm of the IC50, by convention in mol/L) was 4.63. Still for that read-out and setting: the same measure for `Cc1ccc2nc(C)c(-c3ccccc3)cc2c1` [Compound 5, 2,6-Dimethyl-3-phenylquinoline]: 4.72; for `Cc1cc(C)c2cc(-c3ccccc3)c(C)nc2c1` [Compound 6, 2,5,7-trimethyl-3-phenylquinoline]: 4.82.

Turning to `Cc1cc(C)c2cc(C3=CCCCC3)c(C)nc2c1` [Compound 7, 3-cyclohexenyl-2,5,7-trimethylquinoline], the “Compound remaining after 30 min in mouse S9” value (from here on “Compound remaining”) in data set [2] is recorded as 18%. Further, the pIC50 in data set [3] is 4.75; in data set [1] it was 4.84; with HeLa NF-κB-luc cells it was 4.92. The solubility (in general, the concentration that dissolves in the medium under given conditions) at 2 h in the data set “Kinetic solubility assay” was 38.1 µM (≈ 9.58 µg/mL). In addition, the “Mechanism of inhibition (Michaelis-Menton / Lineweaver-Burk analysis)” value in data set [1] (Suc-LLVY-AMC varied, five concentrations of compound, Vmax decreases, KM increases) was “mixed-type inhibition”.

Compound `CCc1nc2cc(C)cc(C)c2cc1C1=CCCCC1` [Compound 8, 2-Ethyl-3-cyclohexenyl-5,7-dimethylquinoline] had a pIC50 in data set [1] of 4.70. Still for that read-out and setting: with `Cc1cc(C)c2cc(C3=CCCCC3)cnc2c1` [Compound 9, 3-Cyclohexenyl-5,7-dimethylquinoline] the figure was 4.86.

Take `Cc1cc(C)c2cc(C3CCCCC3)c(C)nc2c1` [Compound 11]: in data set [2], the “Compound remaining” value is listed as 100%. Also, the solubility at 2 h in the data set “Kinetic solubility assay” is 129 µM (≈ 32.6 µg/mL). Also, the pIC50 in data set [1] was 5.09. Turning to `Cc1nc2ccc(Br)cc2cc1C1=CCCCC1` [Compound 16, 6-Bromo-3-cyclohexenyl-2-methylquinoline], the negative logarithm of the IC50 (pIC50) in data set [1] was 5.00. `Cc1ccc2nc(C)c(C3=CCCCC3)cc2c1` [Compound 19, 3-Cyclohexenyl-2,6-dimethylquinoline] gave a pIC50 in data set [1] of 5.07. Take `CCCCc1ccc2nc(C)c(C3=CCCCC3)cc2c1` [Compound 20, 6-Butyl-3-cyclohexenyl-2-methylquinoline]: the “Compound remaining” value in data set [2] is listed as 12%. Moreover, the solubility at 2 h in “Kinetic solubility assay” was 14.5 µM (≈ 4.05 µg/mL). In data set [1], this compound gave a pIC50 of 5.12. `CN(C)c1ccc2ncc(C3=CCCCC3)cc2c1` [Compound 21, 3-Cyclohexenyl-6-(N,N-dimethylamino)quinoline]: the pIC50 in data set [1] is 5.20. The same measure, in the same setting: with `Cc1nc2ccc(N(C)C)cc2cc1C1=CCCCC1` [Compound 22, 3-Cyclohexenyl-2-methyl-6-(N,N-dimethylamino) quinoline] the figure was 5.21. As for `CCc1nc2ccc(N(C)C)cc2cc1C1=CCCCC1` [Compound 23, 3-Cyclohexenyl-2-ethyl-6(N,N-dimethylamino)quinoline], the “Compound remaining” value in data set [2] is 5%. Moreover, in “Kinetic solubility assay”, the solubility at 2 h was 27.4 µM (≈ 7.68 µg/mL). This compound had a pIC50 in data set [1] of 5.25. Consider `Cc1nc2ccc(N3CCCCC3)cc2cc1C1=CCCCC1` [Compound 25, 3-Cyclohexenyl-2-methyl-6-piperidinylquinoline], for which the negative logarithm of the IC50 (pIC50) in data set [1] was 5.27.

In data set [1], `COc1cc2nc(C)c(C3=CCCCC3)cc2c(OC)c1OC` [Compound 27, 3-Cyclohexenyl-5,6,7-trimethoxy-2-methylquinoline] showed a pIC50 of 4.81. Same read-out and setting: with `CN(C)c1ccc2ncc(C3CCCCC3)cc2c1` [Compound 28, 3-Cyclohexyl-6-(N,N-dimethylamino)quinoline] the figure was 5.26. Regarding `Cc1nc2ccc(N(C)C)cc2cc1C1CCCCC1` [Compound 29, 3-Cyclohexyl-2-methyl-6-(N,N-dimethylamino) quinoline], the “Compound remaining” value in data set [2] amounted to 4%. Moreover, the solubility at 2 h in “Kinetic solubility assay” was 138 µM (≈ 37.1 µg/mL). This compound also had a pIC50 in data set [1] of 5.17.

Turning to `Cc1nc2ccc(C(C)C)cc2cc1C1=CCCCC1` [Compound 30, 3-Cyclohexenyl-6-isopropyl-2-methylquinoline], the “Compound remaining” value in data set [2] is reported as 6%. Further, in the data set “Kinetic solubility assay”, the solubility at 2 h was 11.7 µM (≈ 3.11 µg/mL). Also, in data set [1], the pIC50 is 5.11. `CCc1cc2cc(N(C)C)ccc2nc1CC` [Compound 33, 2,3-Diethyl-N,N-dimethylquinoline] gave a pIC50 in data set [1] of 4.73. `Cc1nc2ccc(N(C)C)cc2cc1-c1ccccc1` [Compound 34, 2-methyl-3-phenyl-6-(N,N-dimethylamino) quinoline]: the “Compound remaining” value in data set [2] is reported as over 100%. Further, the solubility at 2 h in “Kinetic solubility assay” is 121 µM (≈ 31.9 µg/mL). Further, the negative logarithm of the IC50 (pIC50) in data set [1] was 5.00. Regarding `CCCCc1ccc2nc(C)c(-c3ccccc3)cc2c1` [Compound 36, 6-Butyl-2-methyl-3-phenylquinoline], the pIC50 in data set [1] was 4.67.
